For one test, the target named is T1, wildtype Kras / hSOS1 (Homo sapiens, UniProt P01116).
T1 construct: made in house; host or cells: E. coli BL21 (DE3)
The experiment in a line: HTRF assay, wildtype Kras / SOS1 interaction. It counts as binding. The following applies: read-out: IC50 against wildtype Kras. The essentials:
(§1)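 Buffer ~5 mM HEPES pH 7.4, ~150 mM NaCl, ~1 mM DTT, 0.05% BSA, 0.0025% Igepal. Cpd in DMSO + Ras/donor mix + SOS1/acceptor mix; ≥10 min; HTRF 665/620 ratio → IC50.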
(In general: Time-resolved FRET reads energy transfer from a long-lived donor to a nearby acceptor.)

For test [1], the target named is GST-tagged K-Ras mutant / His-tagged hSOS1 (Homo sapiens, UniProt P01116). Nature of the test: HTRF assay, K-Ras mutant / SOS1 interaction. Conditions: read-out: IC50 against mutant Kras. The class given is binding. The essentials: as §1
Chain of GST-tagged K-Ras mutant / His-tagged hSOS1 (P01116 whole entry G12D, form open): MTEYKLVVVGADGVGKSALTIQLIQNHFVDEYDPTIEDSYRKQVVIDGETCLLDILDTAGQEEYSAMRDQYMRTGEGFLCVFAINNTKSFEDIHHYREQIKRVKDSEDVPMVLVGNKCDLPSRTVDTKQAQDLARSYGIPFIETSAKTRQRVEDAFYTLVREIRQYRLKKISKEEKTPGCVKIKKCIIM
The mark [2] stands for this setting: compound nos. 102-196, general methodology of example 5.

Data on 21 compounds can be found in patent US20240254129A1, “HETEROCYCLIC COMPOUNDS AND USES THEREOF” (Kumquat Biosciences Inc., priority 2021, published 2024).

Where two headings read alike, the source gives them in different places.

T1 sequence (P01116 1-188 isoform P01116-2): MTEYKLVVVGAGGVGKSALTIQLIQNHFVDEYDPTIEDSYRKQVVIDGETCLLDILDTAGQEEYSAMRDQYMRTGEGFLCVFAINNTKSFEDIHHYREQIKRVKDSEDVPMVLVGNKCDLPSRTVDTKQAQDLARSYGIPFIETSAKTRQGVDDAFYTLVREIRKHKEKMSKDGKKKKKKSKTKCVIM

On to `CN1CCC[C@H]1COc1nc(N2CCCS(=O)(=O)CC2)c2cc(Cl)c(-c3cccc4sc(N)nc34)c(F)c2n1` [Compound 475, 4-(7-(2-aminobenzo[d]-thiazol-4-yl)-6-chloro-8-fluoro-2-(((S)-1-methyl-pyrrolidin-2-yl)methoxy)-quinazolin-4-yl)-1,4-thiazepane 1,1-dioxide], for which the half-inhibitory concentration (IC50) (at wildtype Kras / hSOS1 (compound nos. 401-703); in test [1] (compound nos. 401-703)) was below 500 nM in each case.
In the case of `Cc1ccnc(C(C)C)c1-n1c(=O)nc(N2CC3CCC(C2)N3)c2cc(F)c(-c3cc(O)cc4ccccc34)nc21` [Compound 567, 4-(3,8-diazabicyclo[3.2.1]-octan-3-yl)-6-fluoro-7-(3-hydroxynaphthalen-1-yl)-1-(2-isopropyl-4-methylpyri-din-3-yl)pyrido[2,3-d]pyrim-idin-2(1H)-one], the half-inhibitory concentration (IC50) (at wildtype Kras / hSOS1 (compound nos. 401-703); in test [1] (compound nos. 401-703)) was above 500 nM throughout.
Regarding `Oc1cc(-c2ncc3c(N4C[C@H]5CC[C@@H](C4)N5)nc(OC[C@@]45CCCN4C[C@H](F)C5)nc3n2)c2ccccc2c1` [Compound 418, 4-(5-((1R,5S)-3,8-diazabicyclo[3.2.1]octan-3-yl)-7-(((2R,7aS)-2-fluorotetrahydro-1H-pyrrolizin-7a(5H)-yl)methoxy)pyrimido[4,5-d]pyrimidin-2-yl)naphthalen-2-ol], the IC50 at wildtype Kras / hSOS1 (compound nos. 401-703) is below 500 nM; in test [1] (compound nos. 401-703), above 500 nM.
On to `N#Cc1c(N)sc2c(F)ccc(-c3c(Cl)cc4c(N5CCCC6(CCNC6)C5)nc(OC[C@@]56CCCN5C[C@H](F)C6)nc4c3F)c12` (stereo partly drawn) [Compound 592, 2-amino-4-(6-chloro-8-fluoro-2-(((2R,7aS)-2-fluorotetrahydro-1H-pyrrol-izin-7a(5H)-yl)methoxy)-4-(2,7-diazaspiro[4.5]decan-7-yl)quinazolin-7-yl)-7-fluorobenzo[b]thiophene-3-carbonitrile], for which the IC50 was above 500 nM on wildtype Kras / hSOS1 (compound nos. 401-703) and below 500 nM in test [1] (compound nos. 401-703).
`C#Cc1c(F)ccc2cc(O)cc(-c3ccc4c(N5CCCC6(CNC6)C5)nc(OC[C@@]56CCCN5C[C@H](F)C6)nc4c3F)c12` [Compound 508, 5-ethynyl-6-fluoro-4-(8-fluoro-2-(((2R,7aS)-2-fluorotetrahydro-1H-pyrrol-izin-7a(5H)-yl)methoxy)-4-(2,6-diazaspiro[3.5]nonan-6-yl)quinazolin-7-yl)naph-thalen-2-ol]: the IC50 on wildtype Kras / hSOS1 (compound nos. 401-703) was above 500 nM; in test [1] (compound nos. 401-703), below 500 nM.
Consider `Nc1nc2c(-c3c(Cl)cc4c(N5C[C@H]6CC[C@@H](C5)C6(F)F)nc(OC[C@@]56CCCN5C[C@H](F)C6)nc4c3F)ccc(F)c2s1` [Compound 655, 4-(6-chloro-4-((1R,5S)-8,8-difluoro-3-azabicyclo[3.2.1]-octan-3-yl)-8-fluoro-2-(((2R,7aS)-2-fluorotetra-hydro-1H-pyrrolizin-7a(5H)-yl)methoxy)quinazolin-7-yl)-7-fluorobenzo[d]thiazol-2-amine], for which the IC50 (at wildtype Kras / hSOS1 (compound nos. 401-703); in test [1] (compound nos. 401-703)) was above 500 nM in each case.
For `Nc1nc2cc(-c3c(Cl)cc4c(N5CC6CCC(C5)N6)nc(OCC56CCCN5CCC6)nc4c3F)ccc2o1` [Compound 502, 5-(4-(3,8-diazabicyclo-[3.2.1]octan-3-yl)-6-chloro-8-fluoro-2-((tetrahydro-1H-pyrrolizin-7a(5H)-yl)meth-oxy)quinazolin-7-yl)benzo-[d]oxazol-2-amine], the concentration for half-maximal inhibition (IC50) (at wildtype Kras / hSOS1 (compound nos. 401-703); in test [1] (compound nos. 401-703)) was above 500 nM throughout.
Regarding `Nc1nc2c(-c3ccc4c(N5CC6CCC(C5)N6)nc(OCC56CCCN5CCC6)nc4n3)ccc(F)c2s1` [Compound 412, 4-(4-(3,8-diazabicyclo-[3.2.1]octan-3-yl)-2-((tetra-hydro-1H-pyrrolizin-7a(5H)-yl)methoxy)pyrido[2,3-d]-pyrimidin-7-yl)-7-fluoro-benzo[d]thiazol-2-amine], the figures for the 50% inhibitory concentration (IC50) (at wildtype Kras / hSOS1 (compound nos. 401-703); in test [1] (compound nos. 401-703)) were below 500 nM and above 500 nM, respectively.
Turning to `CN(C)C1CN(c2nc(N3CCNCC(F)(F)C3)c3cc(Cl)c(-c4cccc5sc(N)nc45)c(F)c3n2)C1` [Compound 135, 4-(6-chloro-4-(6,6-difluoro-1,4-diazepan-1-yl)-2-(3-(dimethylamino)azetidin-1-yl)-8-fluoroquinazolin-7-yl)-benzo[d]thiazol-2-amine], the IC50 (at wildtype Kras / hSOS1 (setting [2]); in test [1] (setting [2])) was above 500 nM throughout.
Consider `CN1CCC[C@H]1COc1nc(N2CC3CCC(C2)N3)c2cc(Cl)c(-c3cccc4sc(N)nc34)c(F)c2n1` [Compound 565, 4-(4-(3,8-diazabicyclo-[3.2.1]octan-3-yl)-6-chloro-8-fluoro-2-(((S)-1-methyl-pyrrolidin-2-yl)methoxy)-quinazolin-7-yl)benzo[d]-thiazol-2-amine], for which the IC50 was above 500 nM at wildtype Kras / hSOS1 (compound nos. 401-703) and below 500 nM in test [1] (compound nos. 401-703).
For `Fc1c(-c2cccc3c2CCCS3)c(Cl)cc2c(N3CC4CCC(C3)N4)nc(OC[C@@]34CCCN3C[C@H](F)C4)nc12` [Compound 637, 4-(3,8-diazabicyclo[3.2.1]-octan-3-yl)-6-chloro-8-fluoro-2-(((2R,7aS)-2-fluoro-tetrahydro-1H-pyrrolizin-7a(5H)-yl)methoxy)-7-(thio-chroman-5-yl)quinazoline], in that order: above 500 nM and above 500 nM.
On the same counts, the results for `CN1CCC[C@H]1COc1nc(N2CCCC(F)C(F)C2)c2cc(Cl)c(-c3cccc4sc(N)nc34)c(F)c2n1` (stereo partly drawn) [Compound 573, 4-(6-chloro-4-(3,4-difluoro-azepan-1-yl)-8-fluoro-2-(((S)-1-methylpyrrolidin-2-yl)methoxy)quinazolin-7-yl)-benzo[d]thiazol-2-amine] are above 500 nM and below 500 nM.
Regarding `Nc1ccc(-c2ccc(O)cc2-c2c(Cl)cc3c(N4CC5CCC(C4)N5)nc(OCC45CCCN4CCC5)nc3c2F)cc1` [Compound 445, 2-(4-(3,8-diazabicyclo-[3.2.1]octan-3-yl)-6-chloro-8-fluoro-2-((tetrahydro-1H-pyrrolizin-7a(5H)-yl)meth-oxy)quinazolin-7-yl)-4′-amino-[1,1′-biphenyl]-4-ol], the IC50 at wildtype Kras / hSOS1 (compound nos. 401-703) is below 500 nM; in test [1] (compound nos. 401-703), above 500 nM.
For the compound `N#Cc1c(N)sc2c(F)ccc(-c3c(Cl)cc4c(N5CC6CCC(C5)N6)nc(OC[C@@]56CCCN5C[C@H](F)C6)nc4c3F)c12` [Compound 673, 4-(4-(3,8-diazabicyclo-[3.2.1]octan-3-yl)-6-chloro-8-fluoro-2-(((2R,7aS)-2-fluorotetrahydro-1H-pyrrol-izin-7a(5H)-yl)methoxy)-quinazolin-7-yl)-2-amino-7-fluorobenzo[b]thiophene-3-carbonitrile], the half-maximal inhibitory concentration (IC50) is above 500 nM on wildtype Kras / hSOS1 (compound nos. 401-703) and below 500 nM in test [1] (compound nos. 401-703).
Regarding `N#Cc1c(N)sc2c(F)ccc(-c3c(Cl)cc4c(N5CC6CCC(C5)N6C5CCOC5)nc(OC[C@@]56CCCN5C[C@H](F)C6)nc4c3F)c12` (stereo partly drawn) [Compound 605, 2-amino-4-(6-chloro-8-fluoro-2-(((2R,7aS)-2-fluoro-tetrahydro-1H-pyrrolizin-7a(5H)-yl)methoxy)-4-((1R,5S)-8-(tetrahydro-furan-3-yl)-3,8-diazabicyclo-[3.2.1]octan-3-yl)quinazolin-7-yl)-7-fluorobenzo[b]thio-phene-3-carbonitrile], the IC50 was above 500 nM at wildtype Kras / hSOS1 (compound nos. 401-703) and below 500 nM in test [1] (compound nos. 401-703).
For the compound `Nc1nc2c(-c3c(Cl)cc4c(N5CCCN(S(=O)(=O)C6CC6)CC5)nc(OC[C@@]56CCCN5C[C@H](F)C6)nc4c3F)ccc(F)c2s1` [Compound 435, 4-(6-chloro-4-(4-(cyclo-propylsulfonyl)-1,4-diazepan-1-yl)-8-fluoro-2-(((2R,7aS)-2-fluorotetra-hydro-1H-pyrrolizin-7a(5H)-yl)methoxy)quinazolin-7-yl)-7-fluorobenzo[d]thiazol-2-amine], the IC50 (on wildtype Kras / hSOS1 (compound nos. 401-703); in test [1] (compound nos. 401-703)) was below 500 nM in each case.
`Nc1nc2c(-c3c(Cl)cc4c(N5CCCC(CO)CC5)nc(OC[C@@]56CCCN5C[C@H](F)C6)nc4c3F)ccc(F)c2s1` (stereo partly drawn) [Compound 485, (1-(7-(2-amino-7-fluoro-benzo[d]thiazol-4-yl)-6-chloro-8-fluoro-2-(((2R,7aS)-2-fluorotetra-hydro-1H-pyrrolizin-7a(5H)-yl)methoxy)quinazolin-4-yl)azepan-4-yl)methanol]: the IC50 (on wildtype Kras / hSOS1 (compound nos. 401-703); in test [1] (compound nos. 401-703)) was below 500 nM throughout.
`COc1nc2c(N3CC4CCC(C3)N4)nc(OC[C@@]34CCCN3C[C@H](F)C4)nc2cc1-c1cc(O)cc2ccccc12` [Compound 533, 4-(4-(3,8-diazabicyclo-[3.2.1]octan-3-yl)-2-(((2R,7aS)-2-fluorotetra-hydro-1H-pyrrolizin-7a(5H)-yl)methoxy)-6-methoxypyrido-[3,2-d]-pyrimidin-7-yl)naphthalen-2-ol]: the half-maximal inhibitory concentration (IC50) (at wildtype Kras / hSOS1 (compound nos. 401-703); in test [1] (compound nos. 401-703)) was above 500 nM throughout.
On to `N#Cc1c(N)sc2c(F)ccc(-c3c(Cl)cc4c(N5CCCNCC5)nc(OC[C@@]56CCCN5C[C@H](F)C6)nc4c3F)c12` [Compound 557, 2-amino-4-(6-chloro-4-(1,4-diazepan-1-yl)-8-fluoro-2-(((2R,7aS)-2-fluorotetra-hydro-1H-pyrrolizin-7a(5H)-yl)methoxy)quinazolin-7-yl)-7-fluorobenzo[b]thio-phene-3-carbonitrile], for which the concentration for half-maximal inhibition (IC50) on wildtype Kras / hSOS1 (compound nos. 401-703) is above 500 nM; in test [1] (compound nos. 401-703), below 500 nM.
Take `Nc1cc(-c2c(Cl)cc3c(N4CCCCCC4)nc(OCC45CCCN4CCC5)nc3c2F)ccc1F` [Compound 670, 5-(4-(azepan-1-yl)-6-chloro-8-fluoro-2-((tetrahydro-1H-pyrrolizin-7a(5H)-yl)meth-oxy)quinazolin-7-yl)-2-fluoroaniline]: the half-maximal inhibitory concentration (IC50) (at wildtype Kras / hSOS1 (compound nos. 401-703); in test [1] (compound nos. 401-703)) was above 500 nM throughout.
Consider `CN1CCC[C@H]1COc1nc(N2CCCCC(F)C2)c2cc(Cl)c(-c3cccc4sc(N)nc34)c(F)c2n1` (stereo partly drawn) [Compound 181, 4-(6-chloro-8-fluoro-4-(3-fluoroazepan-1-yl)-2-(((S)-1-methylpyrrolidin-2-yl)-methoxy)quinazolin-7-yl)-benzo[d]thiazol-2-amine], for which the 50% inhibitory concentration (IC50) (on wildtype Kras / hSOS1 (setting [2]); in test [1] (setting [2])) was below 500 nM each time.

Broadly, the IC50 is the concentration needed to halve the response being measured.
